From the RepoRT retention time repository

Assay: HILIC, Waters ACQUITY UPLC BEH Amide, 100 × 2.1 mm, 1.7 µm; A: water + 0.125% formic acid + 10 mM ammonium formate; B: 5% water + 95% acetonitrile + 0.125% formic acid + 10 mM ammonium formate; gradient (min/%B) 0/100 2/100 7.7/70 9.5/40 10.25/30 12.75/100 17/100
Details: stereoisomer not certain

| Compound | LC retention time |
| --- | --- |
| CN1C(=O)CN=C(c2ccccc2)c2cc([N+](=O)[O-])ccc21 [Nimetazepam] | 0.98 min |
| COCCOC(=O)C1=C(C)NC(C)=C(C(=O)OC(C)C)C1c1cccc([N+](=O)[O-])c1 (centres undefined) [Nimodipine] | 0.94 min |
| CC(=O)Oc1ccccc1C(=O)Nc1ncc([N+](=O)[O-])s1 [Nitazoxanide] | 1 min |
| O=C1CN=C(c2ccccc2)c2cc([N+](=O)[O-])ccc2N1 [Nitrazepam] | 1.2 min |
| CCOC(=O)C1=C(C)NC(C)=C(C(=O)OC)C1c1cccc([N+](=O)[O-])c1 (centres undefined) [Nitrendipine] | 0.95 min |
| CNC(=C[N+](=O)[O-])NCCSCc1csc(CN(C)C)n1 [Nizatidine] | 4.65 min |
| COc1ccc(-c2cc(=O)c3c(OC)c(OC)c(OC)c(OC)c3o2)cc1OC [Nobiletin] | 1 min |
| CCCCC(N)C(=O)O (centres undefined) [Norleucine] | 6.99 min |
| c1cncc(C2CCCN2)c1 (centres undefined) [Nornicotine] | 5.98 min |
| CCCC(N)C(=O)O (centres undefined) [Norvaline] | 4.89 min |
| COc1ccc2c(c1OC)C(=O)OC2C1c2c(cc3c(c2OC)OCO3)CCN1C (centres undefined) [Noscapine] | 1.31 min |
| CC(=O)OCC[C@H](N)C(=O)O [O-Acetyl-L-homoserine] | 7.6 min |
| CC(=O)OCC(N)C(=O)O (centres undefined) [O-Acetylserine] | 7.67 min |
| NCCOP(=O)(O)O [O-Phosphocolamine] | 9.23 min |
| NC(COP(=O)(O)O)C(=O)O (centres undefined) [O-Phosphoserine] | 9.85 min |
| NC(CCOC(=O)CCC(=O)O)C(=O)O (centres undefined) [O-Succinylhomoserine] | 8.06 min |
| O=C(O)CCCCCCCCCCCCCCCCC(=O)O [Octadecanedioic acid] | 1.24 min |
| CCCCCCCC=O [Octanal] | 6.98 min |
| CCCCCCCCO [Octanol] | 8.47 min |
| CC(NC(CCCN=C(N)N)C(=O)O)C(=O)O (centres undefined) [Octopine] | 10.3 min |
| Cc1cc2c(s1)Nc1ccccc1N=C2N1CCN(C)CC1 [Olanzapine] | 4.56 min |
| CCCc1nc(C(C)(C)O)c(C(=O)O)n1Cc1ccc(-c2ccccc2-c2nn[nH]n2)cc1 [Olmesartan] | 4.76 min |
| CN(C)CCC=C1c2ccccc2COc2ccc(CC(=O)O)cc21 [Olopatadine] | 4.41 min |
| COc1ccc2nc(S(=O)Cc3ncc(C)c(OC)c3C)[nH]c2c1 (centres undefined) [Omeprazole] | 1.35 min |

| Compound | LC retention time |
| --- | --- |
| Cc1nccn1CC1CCc2c(c3ccccc3n2C)C1=O (centres undefined) [Ondansetron] | 2.83 min |
| CCCCCCCCCCCC(CC1OC(=O)C1CCCCCC)OC(=O)C(CC(C)C)NC=O (centres undefined) [Orlistat] | 0.89 min |
| COc1cc(C)c(Cc2cnc(N)nc2N)cc1OC [Ormetroprim] | 4.19 min |
| Cc1ncc([N+](=O)[O-])n1CC(O)CCl (centres undefined) [Ornidazole] | 1.08 min |
| NCCCC(N)C(=O)O (centres undefined) [Ornithine] | 9.6 min |
| Nc1ccccc1S(=O)(=O)O [Orthanilic acid] | 2.52 min |
| CCN(CC)CC1CCCCN1CC(=O)N1c2ccccc2C(=O)Nc2cccnc21 (centres undefined) [Otenzepad] | 2.94 min |
| O=C(O)CCc1nc(-c2ccccc2)c(-c2ccccc2)o1 [Oxaprozin] | 1.11 min |
| O=C1Nc2ccc(Cl)cc2C(c2ccccc2)=NC1O (centres undefined) [Oxazepam] | 1.37 min |
| Clc1ccc(CON=C(Cn2ccnc2)c2ccc(Cl)cc2Cl)c(Cl)c1 [Oxiconazole] | 1.08 min |
| COc1ccc2c3c1OC1C(=O)CCC4(O)C(C2)N(C)CCC314 (centres undefined) [Oxycodone] | 4.58 min |
| CN1CCC23c4c5ccc(O)c4OC2C(=O)CCC3(O)C1C5 (centres undefined) [Oxymorphone] | 5.5 min |
| CC[N+](C)(CC)CCOC(=O)C(O)(c1ccccc1)C1CCCCC1 (centres undefined) [Oxyphenonium] | 2.01 min |
| O=C(O)C=Cc1ccc(Cn2ccnc2)cc1 [Ozagrel] | 2.99 min |
| COc1ccc(C(=O)O)cc1 [P-Anisic acid] | 1.3 min |
| CCCCCCCCCCCCCCCC(=O)OC(CC(=O)[O-])C[N+](C)(C)C (centres undefined) [Palmitoylcarnitine cation] | 3.23 min |
| O=C1c2cccc3c2C(CCC3)CN1C1CN2CCC1CC2 (centres undefined) [Palonosetron] | 4.05 min |
| CC(C)(CO)C(O)C(=O)NCCCO (centres undefined) [Panthenol] | 1.9 min |
| COc1ccnc(CS(=O)c2nc3ccc(OC(F)F)cc3[nH]2)c1OC (centres undefined) [Pantoprazole] | 1.21 min |
| CC(C)(CO)C(O)C(=O)NCCC(=O)O (centres undefined) [Pantothenic acid] | 3.5 min |
| COc1ccc(Cc2nccc3cc(OC)c(OC)cc23)cc1OC [Papaverine] | 1.54 min |
| CCOP(=O)(OCC)Oc1ccc([N+](=O)[O-])cc1 [Paraoxon] | 1.02 min |
| CCC(=O)NS(=O)(=O)c1ccc(-c2c(-c3ccccc3)noc2C)cc1 [Parecoxib] | 0.98 min |
| Fc1ccc(C2CCNCC2COc2ccc3c(c2)OCO3)cc1 (centres undefined) [Paroxetine] | 3.08 min |

| Compound | LC retention time |
| --- | --- |
| CC1COc2c(C3(N)CC3)c(F)cc3c(=O)c(C(=O)O)cn1c23 (centres undefined) [Pazufloxacin] | 2.49 min |
| CCn1cc(C(=O)O)c(=O)c2cc(F)c(N3CCN(C)CC3)cc21 [Pefloxacin] | 3.65 min |
| N=C1NC(=O)C(c2ccccc2)O1 (centres undefined) [Pemoline] | 1.39 min |
| Nc1nc2c(ncn2CCC(CO)CO)c(=O)[nH]1 [Penciclovir] | 6.71 min |
| CC(C)=CCN1CCC2(C)c3cc(O)ccc3CC1C2C (centres undefined) [Pentazocine] | 2.65 min |
| CC(=O)CCCCn1c(=O)c2c(ncn2C)n(C)c1=O [Pentoxifylline] | 1.09 min |
| CCCN1CC(CSC)CC2c3cccc4[nH]cc(c34)CC21 (centres undefined) [Pergolide] | 2.41 min |
| O=C1C2CCCCC2C(=O)N1CCCCN1CCN(c2nsc3ccccc23)CC1 (centres undefined) [Perospirone] | 2.14 min |
| COc1cc(-c2[o+]c3cc(O)cc(O)c3cc2OC2OC(CO)C(O)C(O)C2O)cc(O)c1O (centres undefined) [Petunidin-3-glucoside] | 4.47 min |
| CC1C(c2ccccc2)OCCN1C (centres undefined) [Phendimetrazine] | 2.52 min |
| NNCCc1ccccc1 [Phenelzine] | 4.45 min |
| CC(=O)OCCc1ccccc1 [Phenethylacetate] | 1.02 min |
| NCCc1ccccc1 [Phenethylamine] | 4.87 min |
| CC1NCCOC1c1ccccc1 (centres undefined) [Phenmetrazine] | 4.04 min |
| NC(=O)OCCCc1ccccc1 [Phenprobamate] | 1.01 min |
| CC(C)(N)Cc1ccccc1 [Phentermine] | 6.23 min |
| O=CCc1ccccc1 [Phenylacetaldehyde] | 5.4 min |
| NC(=O)CCC(NC(=O)Cc1ccccc1)C(=O)O (centres undefined) [Phenylacetylglutamine] | 6.03 min |
| O=C(O)CNC(=O)Cc1ccccc1 [Phenylacetylglycine] | 2.88 min |
| NCC(O)c1ccccc1 (centres undefined) [Phenylethanolamine] | 5.51 min |
| O=P(O)(O)Oc1ccccc1 [Phenylphosphoric acid] | 7.05 min |
| CC(N)C(O)c1ccccc1 (centres undefined) [Phenylpropanolamine] | 5.29 min |
| O=C(CCc1ccc(O)cc1)c1c(O)cc(O)cc1O [Phloretin] | 1.5 min |
| O=C(c1ccccc1)c1c(O)cc(O)cc1O [Phlorobenzophenone] | 1.34 min |

| Compound | LC retention time |
| --- | --- |
| Oc1cc(O)cc(O)c1 [Phloroglucinol] | 1.15 min |
| C=C(OP(=O)(O)O)C(=O)O [Phosphoenolpyruvic acid] | 9.05 min |
| O=C(O)CP(=O)(O)O [Phosphonoacetic acid] | 9.73 min |
| NC(Cc1ccc(OP(=O)(O)O)cc1)C(=O)O (centres undefined) [Phosphotyrosine] | 9.72 min |
| O=C(O)c1ccccc1C(=O)O [Phthalic acid] | 1.15 min |
| CNC(=O)Oc1ccc2c(c1)C1(C)CCN(C)C1N2C (centres undefined) [Physostigmine] | 3.17 min |
| CCCCCCCCCCCCCCC(O)C(O)C(N)CO (centres undefined) [Phytosphingosine] | 5.18 min |
| CC(C)(O)C1C2OC(=O)C1C1(O)CC3OC34C(=O)OC2C14C (centres undefined) [Picrotin] | 1.21 min |
| O=C1CCC(C(=O)N2CSCC2C(=O)O)N1 (centres undefined) [Pidotimod] | 7.3 min |
| CCC1C(=O)OCC1Cc1cncn1C (centres undefined) [Pilocarpine] | 2.23 min |
| CC(N=C(NC#N)Nc1ccncc1)C(C)(C)C (centres undefined) [Pinacidil] | 1.49 min |
| CCc1ccc(CCOc2ccc(CC3SC(=O)NC3=O)cc2)nc1 (centres undefined) [Pioglitazone] | 1.11 min |
| O=C(O)C1CCCCN1 (centres undefined) [Pipecolic acid] | 7.83 min |
| O=C(C=CC=Cc1ccc2c(c1)OCO2)N1CCCCC1 [Piperine] | 1.1 min |
| Cc1nc2ccccn2c(=O)c1CCN1CCC(C(=O)c2ccc(F)cc2)CC1 [Pirenperone] | 3.5 min |
| CN1C(C(=O)Nc2ccccn2)=C(O)c2ccccc2S1(=O)=O [Piroxicam] | 1.02 min |
| O=C(O)CC(O)CC(O)C=Cc1c(C2CC2)nc2ccccc2c1-c1ccc(F)cc1 (centres undefined) [Pitavastatin] | 1.36 min |
| CN1CCC(=C2c3ccccc3CCc3sccc32)CC1 [Pizotifen] | 2.33 min |
| NCc1[nH]cc(CCC(=O)O)c1CC(=O)O [Porphobilinogen] | 7.4 min |
| CCCNC1CCc2nc(N)sc2C1 (centres undefined) [Pramipexole] | 5.7 min |
| CCC(C)C(=O)OC1CC(O)C=C2C=CC(C)C(CCC(O)CC(O)CC(=O)O)C21 (centres undefined) [Pravastatin] | 1.8 min |
| O=C1CN=C(c2ccccc2)c2cc(Cl)ccc2N1CC1CC1 [Prazepam] | 1.07 min |
